This passage reports % of inhibition and % of control results from ChEMBL document CHEMBL5465560, “Selectivity Literature for EUbOPEN Chemogenomic Library” (2024).

Test [1] concerns the target Phosphatidylinositol 4,5-bisphosphate 3-kinase catalytic subunit beta isoform (Homo sapiens) (UniProt P42338). Put plainly: Selectivity interaction (Adapta Assay) EUB0001632a PIK3CB. Conditions: at 10 µM.
In test [2] the target is T1, Peripheral plasma membrane protein CASK (Homo sapiens) (UniProt O14936).
T1 sequence (whole entry): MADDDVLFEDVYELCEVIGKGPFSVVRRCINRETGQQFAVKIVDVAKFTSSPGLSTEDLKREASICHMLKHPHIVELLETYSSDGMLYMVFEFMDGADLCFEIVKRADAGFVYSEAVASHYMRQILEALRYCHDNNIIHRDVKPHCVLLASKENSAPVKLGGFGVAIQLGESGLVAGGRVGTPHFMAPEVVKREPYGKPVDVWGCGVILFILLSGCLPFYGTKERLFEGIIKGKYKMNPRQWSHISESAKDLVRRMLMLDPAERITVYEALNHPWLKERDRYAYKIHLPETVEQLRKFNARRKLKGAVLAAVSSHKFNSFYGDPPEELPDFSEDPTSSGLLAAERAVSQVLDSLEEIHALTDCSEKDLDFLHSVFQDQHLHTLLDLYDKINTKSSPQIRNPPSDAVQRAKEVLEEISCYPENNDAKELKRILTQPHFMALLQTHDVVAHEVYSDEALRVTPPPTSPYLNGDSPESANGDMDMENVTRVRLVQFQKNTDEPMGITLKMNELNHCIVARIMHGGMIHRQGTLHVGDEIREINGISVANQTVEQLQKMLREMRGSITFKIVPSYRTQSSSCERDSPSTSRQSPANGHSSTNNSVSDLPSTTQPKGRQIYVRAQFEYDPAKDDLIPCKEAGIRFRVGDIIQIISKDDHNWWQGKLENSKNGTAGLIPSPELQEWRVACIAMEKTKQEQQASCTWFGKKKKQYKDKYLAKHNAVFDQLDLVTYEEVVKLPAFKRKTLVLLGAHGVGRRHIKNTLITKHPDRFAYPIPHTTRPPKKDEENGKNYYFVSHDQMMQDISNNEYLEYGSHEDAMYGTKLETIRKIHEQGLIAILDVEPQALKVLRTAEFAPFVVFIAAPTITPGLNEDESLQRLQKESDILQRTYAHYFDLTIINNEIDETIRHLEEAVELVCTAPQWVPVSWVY
Put plainly: Selectivity interaction (LanthaScreen Eu Kinase Binding Assay) EUB0001632a CASK. The note with it: at 10 µM. (In TR-FRET formats the signal depends on donor and acceptor labels being close together.)

Test [3] deals with Ribosomal protein S6 kinase alpha-5 (Homo sapiens) (UniProt O75582). Put plainly: Selectivity interaction (KinomeScan (DiscoverX)) EUB0000607a RPS6KA5. Conditions: at 10 µM.
Test [4] has as its target cGMP-specific 3',5'-cyclic phosphodiesterase (Homo sapiens) (UniProt O76074). Put plainly: Selectivity interaction (Eurofins safety panel) EUB0001564a PDE5A. Conditions: at 10 µM.
The target of test [5] is T2, Prostaglandin G/H synthase 2 (Homo sapiens) (UniProt P35354).
T2 sequence (whole entry): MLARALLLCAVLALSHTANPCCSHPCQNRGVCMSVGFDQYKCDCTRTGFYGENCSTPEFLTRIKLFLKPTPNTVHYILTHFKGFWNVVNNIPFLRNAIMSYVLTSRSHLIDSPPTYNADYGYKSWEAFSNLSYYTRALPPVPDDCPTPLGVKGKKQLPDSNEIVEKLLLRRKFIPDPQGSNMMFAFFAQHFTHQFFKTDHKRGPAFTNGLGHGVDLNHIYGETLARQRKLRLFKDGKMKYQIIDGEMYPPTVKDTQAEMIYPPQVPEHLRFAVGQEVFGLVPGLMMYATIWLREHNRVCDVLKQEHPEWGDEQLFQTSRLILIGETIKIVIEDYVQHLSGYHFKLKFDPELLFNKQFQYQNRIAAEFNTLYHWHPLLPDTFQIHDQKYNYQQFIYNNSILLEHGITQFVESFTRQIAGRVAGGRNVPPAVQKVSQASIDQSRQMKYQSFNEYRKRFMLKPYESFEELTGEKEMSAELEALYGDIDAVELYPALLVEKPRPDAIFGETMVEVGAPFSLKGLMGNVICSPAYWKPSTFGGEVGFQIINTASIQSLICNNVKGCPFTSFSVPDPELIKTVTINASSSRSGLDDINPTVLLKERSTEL
Put plainly: Selectivity interaction (Safety Panel 44tm (Eurofins)) EUB0000162b PTGS2. Conditions: at 10 µM.

The target in test [6] is BDNF/NT-3 growth factors receptor (Homo sapiens) (UniProt Q16620). Put plainly: Selectivity interaction (Kinase panel (Invitrogen)) EUB0000639a NTRK2. Conditions: at 200 nM.
The target in test [7] is Dual specificity tyrosine-phosphorylation-regulated kinase 1B (Homo sapiens, UniProt Q9Y463). Put plainly: Selectivity interaction (KinomeScan (DiscoverX)) EUB0001049a DYRK1B. Conditions: at 1 µM.
The target of test [8] is T3, Receptor-interacting serine/threonine-protein kinase 4 (Homo sapiens) (UniProt P57078).
T3 sequence (whole entry): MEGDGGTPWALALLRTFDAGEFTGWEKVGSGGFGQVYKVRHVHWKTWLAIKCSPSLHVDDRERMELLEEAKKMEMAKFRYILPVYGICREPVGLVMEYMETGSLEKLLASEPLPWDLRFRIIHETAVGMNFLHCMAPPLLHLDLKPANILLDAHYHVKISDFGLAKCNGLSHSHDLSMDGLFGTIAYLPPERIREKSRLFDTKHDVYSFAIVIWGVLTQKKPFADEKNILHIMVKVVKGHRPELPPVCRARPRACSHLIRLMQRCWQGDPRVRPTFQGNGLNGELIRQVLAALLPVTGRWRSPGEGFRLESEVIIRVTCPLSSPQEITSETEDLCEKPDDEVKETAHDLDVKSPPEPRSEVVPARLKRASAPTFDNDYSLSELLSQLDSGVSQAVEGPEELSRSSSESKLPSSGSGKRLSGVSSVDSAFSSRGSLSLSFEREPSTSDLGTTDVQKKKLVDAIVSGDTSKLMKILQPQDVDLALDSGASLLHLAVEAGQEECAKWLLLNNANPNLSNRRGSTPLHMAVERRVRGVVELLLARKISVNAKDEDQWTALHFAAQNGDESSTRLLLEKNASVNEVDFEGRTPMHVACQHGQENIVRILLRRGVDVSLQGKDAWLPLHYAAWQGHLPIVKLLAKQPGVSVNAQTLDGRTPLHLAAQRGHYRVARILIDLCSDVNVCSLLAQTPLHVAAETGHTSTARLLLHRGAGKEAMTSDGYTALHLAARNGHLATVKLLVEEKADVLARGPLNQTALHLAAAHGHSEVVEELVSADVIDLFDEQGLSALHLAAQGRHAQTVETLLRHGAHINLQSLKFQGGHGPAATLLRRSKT
Put plainly: Selectivity interaction (KinomeScan (DiscoverX)) EUB0000092b RIPK4. The note with it: at 10 µM.

Ribosomal protein S6 kinase alpha-5 (Homo sapiens), sequence (O75582 whole entry, looked up): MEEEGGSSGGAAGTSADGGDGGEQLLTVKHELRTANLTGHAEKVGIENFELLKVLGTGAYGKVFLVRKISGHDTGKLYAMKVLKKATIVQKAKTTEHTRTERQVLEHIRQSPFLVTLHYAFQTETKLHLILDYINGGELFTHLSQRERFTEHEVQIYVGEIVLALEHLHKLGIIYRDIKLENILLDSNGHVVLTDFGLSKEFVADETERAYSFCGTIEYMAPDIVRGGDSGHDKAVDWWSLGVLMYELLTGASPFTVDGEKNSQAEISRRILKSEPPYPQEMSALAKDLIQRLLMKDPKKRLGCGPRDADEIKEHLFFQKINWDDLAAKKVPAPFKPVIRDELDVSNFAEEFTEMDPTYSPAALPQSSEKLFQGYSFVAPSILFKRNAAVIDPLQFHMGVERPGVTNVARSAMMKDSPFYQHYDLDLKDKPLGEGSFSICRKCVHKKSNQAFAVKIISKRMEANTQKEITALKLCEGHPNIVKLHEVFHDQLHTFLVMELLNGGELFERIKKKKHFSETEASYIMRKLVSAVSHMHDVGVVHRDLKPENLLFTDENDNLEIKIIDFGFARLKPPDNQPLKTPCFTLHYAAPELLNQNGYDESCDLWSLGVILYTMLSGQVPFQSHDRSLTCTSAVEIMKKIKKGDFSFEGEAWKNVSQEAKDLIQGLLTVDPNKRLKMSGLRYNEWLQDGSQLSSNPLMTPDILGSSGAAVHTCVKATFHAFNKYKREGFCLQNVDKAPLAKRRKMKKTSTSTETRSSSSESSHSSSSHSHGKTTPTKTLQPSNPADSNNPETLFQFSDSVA
Dual specificity tyrosine-phosphorylation-regulated kinase 1B, sequence (Q9Y463 whole entry, looked up): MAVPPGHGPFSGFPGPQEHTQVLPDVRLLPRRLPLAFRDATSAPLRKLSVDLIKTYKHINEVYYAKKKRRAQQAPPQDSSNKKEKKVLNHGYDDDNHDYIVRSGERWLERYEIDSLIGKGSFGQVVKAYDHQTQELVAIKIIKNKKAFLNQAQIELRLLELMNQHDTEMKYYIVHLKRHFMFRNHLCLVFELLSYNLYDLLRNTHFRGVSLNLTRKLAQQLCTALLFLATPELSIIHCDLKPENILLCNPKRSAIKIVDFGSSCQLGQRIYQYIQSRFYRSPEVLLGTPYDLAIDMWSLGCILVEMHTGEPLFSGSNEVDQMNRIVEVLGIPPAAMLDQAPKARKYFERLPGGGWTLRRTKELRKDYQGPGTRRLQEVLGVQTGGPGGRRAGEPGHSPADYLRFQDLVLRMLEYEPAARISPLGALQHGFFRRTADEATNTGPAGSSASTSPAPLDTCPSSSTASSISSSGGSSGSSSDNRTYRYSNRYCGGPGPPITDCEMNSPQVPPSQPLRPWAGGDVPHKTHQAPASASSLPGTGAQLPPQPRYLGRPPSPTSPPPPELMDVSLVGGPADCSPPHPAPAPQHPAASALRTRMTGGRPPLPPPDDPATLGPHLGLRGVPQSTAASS
Phosphatidylinositol 4,5-bisphosphate 3-kinase catalytic subunit beta isoform (Homo sapiens), sequence (P42338 whole entry, looked up, canonical isoform): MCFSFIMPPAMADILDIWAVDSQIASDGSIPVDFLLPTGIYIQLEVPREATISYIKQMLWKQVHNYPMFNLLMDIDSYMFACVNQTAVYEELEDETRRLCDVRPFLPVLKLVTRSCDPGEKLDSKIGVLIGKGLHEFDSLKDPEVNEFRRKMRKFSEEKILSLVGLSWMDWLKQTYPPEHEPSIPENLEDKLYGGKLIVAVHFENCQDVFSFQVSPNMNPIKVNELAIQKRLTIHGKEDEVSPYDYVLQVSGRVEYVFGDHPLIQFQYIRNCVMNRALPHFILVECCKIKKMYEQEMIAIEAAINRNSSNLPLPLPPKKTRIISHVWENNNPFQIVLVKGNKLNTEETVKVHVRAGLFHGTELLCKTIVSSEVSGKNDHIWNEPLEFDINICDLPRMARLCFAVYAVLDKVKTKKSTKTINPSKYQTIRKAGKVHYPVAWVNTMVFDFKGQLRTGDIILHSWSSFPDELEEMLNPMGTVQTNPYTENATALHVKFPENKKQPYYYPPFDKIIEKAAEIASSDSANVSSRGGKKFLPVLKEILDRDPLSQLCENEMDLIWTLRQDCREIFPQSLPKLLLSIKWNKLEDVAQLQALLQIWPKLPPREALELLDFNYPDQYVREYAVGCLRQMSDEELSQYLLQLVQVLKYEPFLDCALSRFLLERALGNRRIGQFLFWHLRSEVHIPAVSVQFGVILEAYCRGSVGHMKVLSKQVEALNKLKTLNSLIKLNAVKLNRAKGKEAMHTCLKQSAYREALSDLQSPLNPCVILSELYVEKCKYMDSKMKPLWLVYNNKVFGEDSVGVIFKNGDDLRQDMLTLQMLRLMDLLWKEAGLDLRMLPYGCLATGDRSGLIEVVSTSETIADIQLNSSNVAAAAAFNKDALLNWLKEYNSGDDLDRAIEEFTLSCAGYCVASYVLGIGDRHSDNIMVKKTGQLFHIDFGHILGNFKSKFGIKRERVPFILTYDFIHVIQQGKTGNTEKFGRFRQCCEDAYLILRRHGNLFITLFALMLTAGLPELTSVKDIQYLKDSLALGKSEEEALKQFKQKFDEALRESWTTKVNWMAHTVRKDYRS
BDNF/NT-3 growth factors receptor (Homo sapiens), sequence (Q16620 32-822 limits assumed): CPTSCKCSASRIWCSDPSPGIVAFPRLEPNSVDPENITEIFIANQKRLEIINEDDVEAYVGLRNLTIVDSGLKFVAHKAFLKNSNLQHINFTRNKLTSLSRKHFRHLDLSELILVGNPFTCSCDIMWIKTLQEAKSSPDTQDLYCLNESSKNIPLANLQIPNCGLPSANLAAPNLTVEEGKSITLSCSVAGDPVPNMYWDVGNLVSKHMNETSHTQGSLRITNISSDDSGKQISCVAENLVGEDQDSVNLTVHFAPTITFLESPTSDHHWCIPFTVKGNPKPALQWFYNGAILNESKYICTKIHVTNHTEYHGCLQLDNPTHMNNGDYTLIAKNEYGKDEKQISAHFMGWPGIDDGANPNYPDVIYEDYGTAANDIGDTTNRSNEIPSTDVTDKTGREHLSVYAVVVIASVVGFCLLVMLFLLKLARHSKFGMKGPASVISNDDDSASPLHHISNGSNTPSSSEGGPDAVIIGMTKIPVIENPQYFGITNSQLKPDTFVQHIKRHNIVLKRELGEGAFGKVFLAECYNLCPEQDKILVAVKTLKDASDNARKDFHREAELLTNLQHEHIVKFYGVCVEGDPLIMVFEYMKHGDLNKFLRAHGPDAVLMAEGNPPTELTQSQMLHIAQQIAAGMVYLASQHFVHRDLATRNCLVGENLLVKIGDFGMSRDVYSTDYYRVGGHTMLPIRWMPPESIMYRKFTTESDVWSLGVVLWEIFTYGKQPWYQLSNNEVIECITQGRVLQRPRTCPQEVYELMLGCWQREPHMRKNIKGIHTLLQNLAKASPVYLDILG

Consider `Cn1cc(-n2cnc3c(NCc4nc5cc(Cl)c(Cl)cc5[nH]4)nc(N4CCOCC4)nc32)cn1`, for which the % of inhibition in test [1] was 11.6%; in test [2], -92.6%.

On to `CNC(=O)Nc1ccc(-c2nc(N3CC4CCC(C3)O4)c3cnn(C4CCC5(CC4)OCCO5)c3n2)cc1`, for which the % of control in test [3] stood at 90%.

In the case of `CC[C@@H](Nc1c(C#N)c(-c2ccc(-c3cccc(C)c3F)cc2)nc2cnccc12)C(=O)O` [BAY-091], in test [4], the % of inhibition came to 62%.

In turn, `CN(C)C(=O)Cn1cc(-c2ccc(-c3cncc4ccccc34)cc2)cn1` came in with a % of control in test [5] of 81%.

Regarding `CC[C@@H]1[C@H](F)C(=O)N[C@@H]1COc1nccc2cc(C(N)=O)c(OC)cc12` [ZIMLOVISERTIB], the % of inhibition in test [6] was 15.8%.

`COc1cc(Nc2nc(C)cc(-c3cnn4nc(OC)ccc34)n2)cc(C(F)(F)F)c1` yielded a % of control in test [7] of 100%.

In turn, `CCC(=O)N1CCN(c2ccc(-n3c(=O)ccc4cnc5ccc(-c6cnc7ccccc7c6)cc5c43)cc2C(F)(F)F)CC1` showed a % of control in test [8] of 100%.
